{"source": "a compilation of properties of binary mixtures (doi:10.1016/j.molliq.2016.11.074)", "assay": "xn = mol fraction of the nth substance listed", "settings": "100 kPa"}
{"smiles": "O", "note": "+ CC[n+]1ccn(C)c1.CS(=O)(=O)[O-]", "values": [{"measurement": "electrical conductivity", "setting": "298.15 K, x1 = 1", "value": 0.0002, "unit": "S/m"}]}
{"smiles": "CC[n+]1ccn(C)c1.CS(=O)(=O)[O-]", "note": "+ O", "values": [{"measurement": "speed of sound", "setting": "293.15 K, x2 = 0.0015", "value": 1779, "unit": "m/s"}, {"measurement": "speed of sound", "setting": "293.15 K, x2 = 0.1905", "value": 1793, "unit": "m/s"}, {"measurement": "speed of sound", "setting": "293.15 K, x2 = 0.3226", "value": 1808, "unit": "m/s"}, {"measurement": "speed of sound", "setting": "293.15 K, x2 = 0.4301", "value": 1817, "unit": "m/s"}, {"measurement": "speed of sound", "setting": "293.15 K, x2 = 0.619", "value": 1851, "unit": "m/s"}, {"measurement": "speed of sound", "setting": "293.15 K, x2 = 0.7573", "value": 1853, "unit": "m/s"}, {"measurement": "speed of sound", "setting": "293.15 K, x2 = 0.9048", "value": 1803, "unit": "m/s"}, {"measurement": "electrical conductivity", "setting": "298.15 K, x1 = 0.0119", "value": 2.19, "unit": "S/m"}, {"measurement": "electrical conductivity", "setting": "298.15 K, x2 = 0", "value": 0.45, "unit": "S/m"}, {"measurement": "speed of sound", "setting": "298.15 K, x2 = 0", "value": 1766, "unit": "m/s"}, {"measurement": "electrical conductivity", "setting": "298.15 K, x2 = 0.191", "value": 0.707, "unit": "S/m"}, {"measurement": "speed of sound", "setting": "298.15 K, x2 = 0.3226", "value": 1795, "unit": "m/s"}, {"measurement": "electrical conductivity", "setting": "298.15 K, x2 = 0.3233", "value": 0.851, "unit": "S/m"}, {"measurement": "speed of sound", "setting": "298.15 K, x2 = 0.5054", "value": 1818, "unit": "m/s"}, {"measurement": "electrical conductivity", "setting": "298.15 K, x2 = 0.5057", "value": 1.24, "unit": "S/m"}, {"measurement": "speed of sound", "setting": "298.15 K, x2 = 0.6206", "value": 1840, "unit": "m/s"}, {"measurement": "electrical conductivity", "setting": "298.15 K, x2 = 0.7542", "value": 2.37, "unit": "S/m"}, {"measurement": "speed of sound", "setting": "298.15 K, x2 = 0.7573", "value": 1846, "unit": "m/s"}, {"measurement": "electrical conductivity", "setting": "298.15 K, x2 = 0.902", "value": 3.74, "unit": "S/m"}, {"measurement": "speed of sound", "setting": "298.15 K, x2 = 0.9032", "value": 1791, "unit": "m/s"}, {"measurement": "electrical conductivity", "setting": "298.15 K, x2 = 0.9651", "value": 3.87, "unit": "S/m"}, {"measurement": "speed of sound", "setting": "303.15 K, x2 = 0", "value": 1753, "unit": "m/s"}, {"measurement": "speed of sound", "setting": "303.15 K, x2 = 0.3241", "value": 1784, "unit": "m/s"}, {"measurement": "speed of sound", "setting": "303.15 K, x2 = 0.427", "value": 1793, "unit": "m/s"}, {"measurement": "speed of sound", "setting": "303.15 K, x2 = 0.5069", "value": 1807, "unit": "m/s"}, {"measurement": "speed of sound", "setting": "303.15 K, x2 = 0.7542", "value": 1841, "unit": "m/s"}, {"measurement": "speed of sound", "setting": "303.15 K, x2 = 0.9048", "value": 1779, "unit": "m/s"}, {"measurement": "speed of sound", "setting": "303.15 K, x2 = 0.9662", "value": 1680, "unit": "m/s"}, {"measurement": "speed of sound", "setting": "308.15 K, x2 = 0", "value": 1743, "unit": "m/s"}, {"measurement": "speed of sound", "setting": "308.15 K, x2 = 0.192", "value": 1757, "unit": "m/s"}, {"measurement": "speed of sound", "setting": "308.15 K, x2 = 0.3241", "value": 1771, "unit": "m/s"}, {"measurement": "speed of sound", "setting": "308.15 K, x2 = 0.4286", "value": 1783, "unit": "m/s"}, {"measurement": "speed of sound", "setting": "308.15 K, x2 = 0.5054", "value": 1795, "unit": "m/s"}, {"measurement": "speed of sound", "setting": "308.15 K, x2 = 0.6206", "value": 1818, "unit": "m/s"}, {"measurement": "speed of sound", "setting": "308.15 K, x2 = 0.7558", "value": 1838, "unit": "m/s"}, {"measurement": "speed of sound", "setting": "308.15 K, x2 = 0.9032", "value": 1765, "unit": "m/s"}, {"measurement": "speed of sound", "setting": "313.15 K, x2 = 0.192", "value": 1745, "unit": "m/s"}, {"measurement": "speed of sound", "setting": "313.15 K, x2 = 0.3241", "value": 1760, "unit": "m/s"}, {"measurement": "speed of sound", "setting": "313.15 K, x2 = 0.5084", "value": 1784, "unit": "m/s"}, {"measurement": "speed of sound", "setting": "313.15 K, x2 = 0.6206", "value": 1808, "unit": "m/s"}, {"measurement": "speed of sound", "setting": "313.15 K, x2 = 0.7558", "value": 1830, "unit": "m/s"}, {"measurement": "speed of sound", "setting": "313.15 K, x2 = 0.9662", "value": 1668, "unit": "m/s"}]}
